target: T1, Kv1.3 channels (Mus musculus, UniProt P16390); assay: Kv1.3 assay, whole-cell patch-clamp in stably transfected L929 cells; format: cell-based; details: c=20 μM, two cells per compound
T1 construct: expressed in transfected cells; host or cells: L929 cells, stably transfected
Protocol: The inhibition of Kv1.3 was measured in stable transfected cell lines expressing mouse Kv1.3 using the patch-clamp technique (Rauer H et al. J Biol Chem Vol. 275, No. 2, 1201-1208, 2000), Rauer H Mol Pharmacol, 50, 1625-1634, 1996, Rauer H et al. J Pharmacol, 127, 1065-1074, 1999).
Stable transfected L929 cells with Kv1.3 channels were grown in DMEM (Glutamax-I) media with 10% FCS, geneticin 330 μg/ml under 10% CO2 atmosphere.
Whole-cell patch-clamp configuration, with an external bath solution of 160 mM NaCl, 4, 5 mM KCl, 1 mM MgCl, 2 mM CaCl2, 5 mM HEPES, 10 mM EGTA and NaOH adjusted to pH 7.4. Internal pipette solution for recording was 155 mM KF, 2 mM MgCl2, 10 mM HEPES, 10 mM EGTA with KOH adjusted to pH 7.2. Currents were activated by a 200-ms voltage step from a holding potential of −80 to 40 mV every 30 s. Holding potential −80 mV.
Each compound was tested on two different cells. The cell was perfused with external bath solution (black line), then the compound was applied (c=20 μM). The resulting stedy-state current traces are shown as red lines. Example 3, 5, 6, 7, 8 are blockers.

T1 sequence (P16390 whole entry): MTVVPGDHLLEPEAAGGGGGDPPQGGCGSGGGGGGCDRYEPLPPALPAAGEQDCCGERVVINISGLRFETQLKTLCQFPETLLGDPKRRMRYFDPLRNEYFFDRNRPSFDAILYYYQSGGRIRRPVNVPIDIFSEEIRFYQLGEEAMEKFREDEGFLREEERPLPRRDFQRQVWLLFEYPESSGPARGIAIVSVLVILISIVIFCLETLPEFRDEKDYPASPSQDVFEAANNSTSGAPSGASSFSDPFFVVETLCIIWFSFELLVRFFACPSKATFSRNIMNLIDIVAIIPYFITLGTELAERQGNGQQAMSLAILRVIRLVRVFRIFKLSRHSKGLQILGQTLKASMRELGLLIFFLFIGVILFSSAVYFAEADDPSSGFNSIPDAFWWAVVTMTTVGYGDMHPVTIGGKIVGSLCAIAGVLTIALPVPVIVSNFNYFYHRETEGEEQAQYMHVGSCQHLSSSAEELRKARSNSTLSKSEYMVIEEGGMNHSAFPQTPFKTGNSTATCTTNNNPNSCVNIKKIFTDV

Kv1.3 channel block | Structure (SMILES)
blockers | O=C(Nc1ccc(C2=N[C@H](Cc3ccccc3)CO2)cc1)Nc1ccc(S(=O)(=O)NCc2cc(F)c(F)c(F)c2)cc1 [Example 3, 4-{3-[4-(4-(R)-Benzyl-4,5-dihydro-oxazol-2-yl)-phenyl]-ureido}-N-(3,4,5-trifluoro-benzyl)-benzenesulfonamide]
blockers | O=C(Nc1cccc(C2=N[C@H](c3ccccc3)CO2)c1)Nc1cccc(C(F)(F)F)c1 [Example 5, 1-[3-(4-(R)-Phenyl-4,5-dihydro-oxazol-2-yl)-phenyl]-3-(3-trifluoromethyl-phenyl)-urea]
blockers | O=C(Nc1cccc(C2=N[C@@H](c3ccccc3)CO2)c1)Nc1cccc(C(F)(F)F)c1 [Example 6, 1-[3-(4-(S)-Phenyl-4,5-dihydro-oxazol-2-yl)-phenyl]-3-(3-trifluoromethyl-phenyl)-urea]
blockers | O=C(Nc1cccc(C2=N[C@H](Cc3ccccc3)CO2)c1)Nc1cccc(C(F)(F)F)c1 [Example 7, 1-[3-(4-(R)-Benzyl-4,5-dihydro-oxazol-2-yl)-phenyl]-3-(3-trifluoromethyl-phenyl)-urea]
blockers | O=C(Nc1cccc(C2=N[C@@H](Cc3ccccc3)CO2)c1)Nc1cccc(C(F)(F)F)c1 [Example 8, 1-[3-(4-(S)-Benzyl-4,5-dihydro-oxazol-2-yl)-phenyl]-3-(3-trifluoromethyl-phenyl)-urea]

target: IMPDH; assay: IMPDH enzyme assay (NADH release at 340 nm); format: biochemical, human; details: 0.2 mM IMP, 0.4 mM NAD, 37° C.
Protocol: IMPDH Enzyme-Assay: For measuring IMPDH activity in vitro, the substrate inosine monophosphate (IMP) and enzyme, with or without inhibitor, are mixed together. […] The released NADH is measured at 340 nm. The assay is performed in PMMA half micro liter cuvettes, the total assay volume is 1 mL. 500 μl of 2× assay buffer (200 mM Tris/HCl, pH 8.0, 200 mM KCl, 6 mM EDTA and 4 mM DTT) are mixed with 10 μL of a freshly prepared 20 mM IMP solution (0.2 mM final concentration) and 10 μL of enzyme (0.03 U/mL). An appropriate amount of inhibitor is dissolved in 100% DMSO. 10 μL of this solution are added to the assay mix (1% DMSO final concentration). Finally 455 μL of deionized water are added to give the final volume of 1 mL. The mixture is incubated for 10 min at 37° C. The enzyme reaction is started by addition of 25 μL of a 16 mM NAD solution (0.4 mM final concentration). Reaction is followed for 30 min at 37° C. at 340 nm. The enzyme reaction runs linear with respect to time during the 30 min. The slopes of the resulting curves are calculated and results are presented in % of residual activity, which is calculated as % activity=(slope with inhibitor/slope without inhibitor) *100. For the determination of the IC50 values (concentration of inhibitor required for 50% inhibition) at least four different inhibitor concentrations were applied. Each data point was recorded in triplicates. […]

IC50 [µM] | Structure (SMILES)
< 5 | COc1cc(NC(=O)Nc2ccc(S(=O)(=O)N3CCOCC3)cc2)ccc1C#N [Example 15, 1-(4-Cyano-3-methoxy-phenyl)-3-[4-(morpholine-4-sulfonyl)-phenyl]-urea]

Reference: patent publication US7317030B2, “Compounds as inhibitors of cell proliferation and viral infections” (4SC AG, priority 2004, dated 2008)
